Read-outs that look alike come from different tables or passages of the source.
Columns and labels:
[1] = biological target: T1, MOR (Mus musculus, UniProt P42866); test: 35S-GTP[γS]-binding functional assay in MOR expressing CHO cells (Example 2); assay type: biochemical; design: expressed in transfected cells; host or cells: CHO (Chinese hamster ovary) cell line, membrane preparation
Procedure: Furthermore, these systems express the receptor at high density to provide optimal signal-to-noise ratios in the radioligand and ^35S-GTP[γS] binding assays.
(§1) Aliquots of a membrane preparation were incubated with the radioligands in the presence of different concentrations of the drug under investigation at 30° C. for 1 h. […] The potency of the drugs in displacing the specific binding of the radioligand was determined from data using linear regression analysis of Hill plots. The IC50 values will then be determined and corrected to K1 values using the Cheng-Prusoff equation. Functional assays, including ^35S-GTP[γS]-binding assay were conducted in the same cell membranes used for the receptor binding assays.

[2] = tested on: Caco-2 cells; conditions: cited from earlier work
[3] = biological target: T1, MOR; design: expressed in transfected cells; host or cells: CHO (Chinese hamster ovary) cell line, membrane preparation; conditions: Table 13, NAP, cited from earlier work
[4] = tested on: morphine antinociception in mice; test: Warm-water tail immersion test, blockade of morphine antinociception (Example 2); assay type: in vivo, mouse (Swiss Webster); conditions: s.c., 5 min before morphine 10 mg/kg s.c.; 56 °C
[5] = dose as high as 10 mg/kg; cited from earlier work
[6] = biological target: T1, MOR; design: expressed in transfected cells; host or cells: CHO (Chinese hamster ovary) cell line, membrane preparation; conditions: Table 13 controls and NAP; read-out: Ki μ (see reference 65); cited from earlier work
[7] = tested on: mouse gastrointestinal transit; conditions: high doses; cited from earlier work
[8] = biological target: DOR (UniProt P41143); test: Competitive radioligand binding, [3H]NTI, CHO cells (Example 7); design: Ki δ; [3H]NTI; DOR 35S-GTP[γS]; other: three experiments; other: NAP; other: SNC80 normalized to 100%; conditions: Table 13, read-out: Ki δ
Procedure: as §1, with “protein (30 μg)” for “preparation”, “corresponding radioligand” for “radioligands”, “Ki” for “K1”, “assays” for “assays, including ^35S-GTP[γS]-binding assay”, “assays. Membrane proteins (10 μg) were incubated with varying concentrations of drugs, GDP (μ: 10 μM; κ and δ: 20 μM) and 0.1 nM ^35S-GTP[γS] in assay buffer for 2 h (μ) or 1.5 h (κ and δ) at 30° C. Nonspecific binding was determined with 10 μM unlabeled GTP[γS].” for “assays.”

[9] = biological target: T2, KOR (Homo sapiens, UniProt P41145); test: Competitive radioligand binding, [3H]norBNI or [3H]DPN, CHO cells (Example 7); conditions: Table 13; [3H]norBNI as radioligand; read-out: Ki κ
T2 construct: expressed in transfected cells; host or cells: CHO (Chinese hamster ovary) cell line, membrane preparation
Procedure: as §1, with “protein (30 μg)” for “preparation”, “corresponding radioligand” for “radioligands”, “Ki” for “K1”, “assays” for “assays, including ^35S-GTP[γS]-binding assay”, “assays. Membrane proteins (10 μg) were incubated with varying concentrations of drugs, GDP (μ: 10 μM; κ and δ: 20 μM) and 0.1 nM ^35S-GTP[γS] in assay buffer for 2 h (μ) or 1.5 h (κ and δ) at 30° C. Nonspecific binding was determined with 10 μM unlabeled GTP[γS].” for “assays.”

[10] = biological target: T1, MOR; test: Competitive radioligand binding, [3H]naloxone, CHO cells (Example 7); design: expressed in transfected cells; host or cells: CHO (Chinese hamster ovary) cell line, membrane preparation; conditions: Table 13; for Selectivity δ/μ / Selectivity κ/μ: Ki ratio; for Ki: [3H]naloxone, three experiments, read-out: Ki μ
Procedure: as §1, with “protein (30 μg)” for “preparation”, “corresponding radioligand” for “radioligands”, “Ki” for “K1”, “assays” for “assays, including ^35S-GTP[γS]-binding assay”, “assays. Membrane proteins (10 μg) were incubated with varying concentrations of drugs, GDP (μ: 10 μM; κ and δ: 20 μM) and 0.1 nM ^35S-GTP[γS] in assay buffer for 2 h (μ) or 1.5 h (κ and δ) at 30° C. Nonspecific binding was determined with 10 μM unlabeled GTP[γS].” for “assays.”

[11] = tested on: Caco-2 cells; test: Bidirectional transport in Caco-2 cells; assay type: in vitro ADME
Procedure: To further characterize the permeability of compounds 8 and 12, they were evaluated in Caco-2 cells for their bidirectional transport capacity (FIG. 29).
Caco-2 (passages 45-47; ATCC, Manassas, Va.) cell culture and bidirectional permeability studies with polyester Transwell filters were performed as described previously.^67 Briefly, cells were cultured in Dulbecco's modified Eagle's medium (9.6 g/L glucose) with 10%/fetal bovine serum and supplemented with 100 unit/mL penicillin, 100 μg/mL streptomycin, and 5% nonessential amino acids for 22 days after seeding on 12 mm 0.4 μm #3460 Transwell-Clear inserts (Fisher Scientific) at a density of 80,000 cells/cm^2. […] A portion of the supernatants was analyzed by HPLC-UV using an Alltima HP C18 column (3 μm, 4.6×100 mm; Alltech, Deerfield, Ill.) at 270 nm for NAP, and a Microsorb-MV 100-3 C18 (4.6×100 mm; Varian) column for NMP or NGP at 266 nm. Analytes concentration was quantified from standard curves prepared in transport buffer-acetonitrile (4:1). […] Apparent permeability was then calculated using the following equation: Papp=J/(A×Ci), where J is the transport rate, A is the surface area of the cell monolayer, and Ci is the initial concentration of the dosing solution.

[12] = biological target: T2, KOR; test: KOR 35S-GTP[γS] binding assay (Example 7); assay type: biochemical; conditions: for KOR 35S-GTP[γS] Binding % Emax of U50,488H: U50,488H normalized to 100%; for EC50: three experiments
Procedure: as §1, with “protein (30 μg)” for “preparation”, “corresponding radioligand” for “radioligands”, “Ki” for “K1”, “assays” for “assays, including ^35S-GTP[γS]-binding assay”, “assays. Membrane proteins (10 μg) were incubated with varying concentrations of drugs, GDP (μ: 10 μM; κ and δ: 20 μM) and 0.1 nM ^35S-GTP[γS] in assay buffer for 2 h (μ) or 1.5 h (κ and δ) at 30° C. Nonspecific binding was determined with 10 μM unlabeled GTP[γS].” for “assays.”

[13] = biological target: T1, MOR; test: MOR 35S-GTP[γS] binding assay (Example 7); assay type: biochemical; design: expressed in transfected cells; host or cells: CHO (Chinese hamster ovary) cell line, membrane preparation; conditions: Table 13; for MOR 35S-GTP[γS] Binding % Emax of DAMGO: DAMGO normalized to 100%
Procedure: as §1, with “protein (30 μg)” for “preparation”, “corresponding radioligand” for “radioligands”, “Ki” for “K1”, “assays” for “assays, including ^35S-GTP[γS]-binding assay”, “assays. Membrane proteins (10 μg) were incubated with varying concentrations of drugs, GDP (μ: 10 μM; κ and δ: 20 μM) and 0.1 nM ^35S-GTP[γS] in assay buffer for 2 h (μ) or 1.5 h (κ and δ) at 30° C. Nonspecific binding was determined with 10 μM unlabeled GTP[γS].” for “assays.”

[14] = biological target: DOR (UniProt P41143); test: DOR 35S-GTP[γS] binding assay (Example 7); assay type: biochemical; design: Ki δ; [3H]NTI; DOR 35S-GTP[γS]; other: three experiments; other: NAP; other: SNC80 normalized to 100%; conditions: for DOR 35S-GTP[γS] Binding % Emax of SNC80: SNC80 normalized to 100%; for EC50: three experiments
Procedure: as §1, with “protein (30 μg)” for “preparation”, “corresponding radioligand” for “radioligands”, “Ki” for “K1”, “assays” for “assays, including ^35S-GTP[γS]-binding assay”, “assays. Membrane proteins (10 μg) were incubated with varying concentrations of drugs, GDP (μ: 10 μM; κ and δ: 20 μM) and 0.1 nM ^35S-GTP[γS] in assay buffer for 2 h (μ) or 1.5 h (κ and δ) at 30° C. Nonspecific binding was determined with 10 μM unlabeled GTP[γS].” for “assays.”

[15] = tested on: morphine antinociceptive effect in mice; conditions: antagonizing morphine 10 mg/kg; s.c.; cited from earlier work
[16] = in vivo; cited from earlier work
[17] = tested on: mice; test: Tail flick test, acute antinociception (Example 7); conditions: 10 mg/kg
[18] = tested on: morphine naive mice; test: Acute charcoal gavage and intestinal motility assay in morphine naive mice; conditions: morphine 10 mg/kg
[19] = biological target: T1, MOR; test: [35S]GTPγS functional assay (Example 1); assay type: biochemical; design: expressed in transfected cells; host or cells: CHO (Chinese hamster ovary) cell line, membrane preparation; conditions: Emax of compound vs Emax of DAMGO (normalized to 100%)
[20] = biological target: DOR (UniProt P41143); assay type: binding; design: rows headed: Ki ± SEM [3H]NTI (δ); other: n=3; Ki ± SEM DOR; conditions: n=3; read-out: Ki ± SEM [3H]NTI (δ)
[21] = biological target: T1, MOR; test: Competitive radioligand binding, [3H]DAMGO, mono-cloned receptor in CHO cells (Example 1); design: expressed in transfected cells; host or cells: CHO (Chinese hamster ovary) cell line, membrane preparation; conditions: read-out: Ki ± SEM [3H]DAMGO (μ); n=3
[22] = biological target: DOR (UniProt P41143); assay type: binding; design: rows headed: Ki ± SEM [3H]NTI (δ); other: n=3; Ki ± SEM DOR; conditions: n=3; read-out: Ki ± SEM DOR
[23] = biological target: T2, KOR; assay type: binding; conditions: n=3; read-out: Ki ± SEM [3H]norBNI (κ)
[24] = biological target: T1, MOR; test: Competitive radioligand binding, [3H]naloxone, CHO cells (Example 2); design: expressed in transfected cells; host or cells: CHO (Chinese hamster ovary) cell line, membrane preparation; conditions: n=3; read-out: Ki ± SEM MOR
[25] = biological target: T2, KOR; assay type: binding; conditions: n=3; read-out: Ki ± SEM KOR

Row | Compound | AD50 value for blockade of morphine antinociception [4] | Ki [8] | Ki [9] | Selectivity δ/μ [10] | Selectivity κ/μ [10] | Ki [10] | apparent permeability / bidirectional transport [11] | KOR 35S-GTP[γS] Binding % Emax of U50,488H [12] | EC50 [12] | EC50 [13] | MOR 35S-GTP[γS] Binding % Emax of DAMGO [13] | DOR 35S-GTP[γS] Binding % Emax of SNC80 [14] | EC50 [14] | also measured
1 | 17-Cyclopropylmethyl-3,14β-dihydroxy-4,5α-epoxy-6β-[(4′-pyridyl)acetamido]morphinan [Compound 6] | 4.5198 (2.4570 to 8.269.12) mg/kg (95% C.L.) | – | – | – | – | – | – | – | – | – | – | – | – | EC50 ([1]; n=3): 1.15 ± 0.384 nM; Emax (% Stim) ([1]; n=3): 83.3 ± 3.1 % Stim; Percent Max of DAMGO ([1]; normalized to full agonist DAMGO (3 μM)): 22.72 ± 0.84%; apparent permeability (words, reported previously) [2]: significantly low; MOR 35S-GTP[γS] Binding % Emax of DAMGO (see reference 65) [3]: 22.72 ± 0.84%; EC50 ([3]; read-out: MOR 35S-GTP[γS] Binding EC50 (see reference 65)): 1.14 ± 0.38 nM; withdrawal symptoms [5]: marginal withdrawing symptoms; Ki [6]: 0.37 ± 0.07 nM; diarrhea [7]: incidence of diarrhea associated with high doses of NAP
2 | 17-Cyclopropylmethyl-3,14β-dihydroxy-4,5α-epoxy-6β-{2′-[(pyridine-4″-yl)carboxamido]acetamido}morphinan [Compound 12] | – | 526 ± 78.3 nM | 203 ± 67 nM | 719 | 278 | 0.73 ± 0.59 nM | no significant difference in its bidirectional transport capacity | 23.5 ± 1.6% | 25 ± 22.4 nM | 2.84 ± 0.53 nM | 22.62 ± 0.66% | 84.3 ± 23.2% | 19 ± 2.9 nM | –
3 | 17-Cyclopropylmethyl-3,14β-dihydroxy-4,5α-epoxy-6β-{[4′-(3′-methylpyridyl)]carboxamido}morphinan [Compound 8] | – | 273.6 ± 1.8 nM | 96.7 ± 12.2 nM | 470 | 166 | 0.58 ± 0.25 nM | low permeability | 31.4 ± 3.9% | 26.4 ± 8.4 nM | 1.52 ± 0.26 nM | 30.63 ± 0.55% | 90.2 ± 21.0% | 38.6 ± 10 nM | –
4 | C=CCN1CC[C@]23c4c5ccc(O)c4O[C@H]2C(=O)CC[C@@]3(O)[C@H]1C5 [Naloxone, reference compound] | 0.05 (0.03 to 0.09) mg/kg (95% C.L.) | – | – | – | – | – | – | – | – | – | – | – | – | AD50 values (data taken from Li, et al.) [15]: 0.05 (0.03-0.09) mg/kg (95% CL); systemic bioavailability [16]: ~2%
5 | CN1CC[C@]23c4c5ccc(O)c4O[C@H]2[C@@H](O)C=C[C@H]3[C@H]1C5.O=S(=O)(O)O [morphine, Morphine sulfate] | – | – | – | – | – | – | – | – | – | – | – | – | – | percentage maximum possible effect (% MPE) [17]: 100%; intestinal motility (% of intestine length travelled by charcoal) [18]: 12.4±2.0%
6 | COC(=O)/C=C/C(=O)N[C@@H]1CC[C@@]2(O)[C@H]3Cc4ccc(O)c5c4[C@@]2(CCN3CC2CC2)[C@H]1O5 [β-FNA, β-funaltrexamine] | – | – | – | – | – | – | – | – | – | – | – | – | – | Percent Max of DAMGO [19]: 0.00%; Ki [20]: 27.8 ± 4.6 nM; Ki [21]: 0.41 ± 0.04 nM; Ki [22]: 27.8 ± 4.6 nM; Ki [23]: 0.94 ± 0.05 nM; Ki [24]: 0.41 ± 0.04 nM; Ki [25]: 0.94 ± 0.05 nM

Source: patent publication US8980908B2, “Non-peptidyl, potent, and selective mu opioid receptor antagonists and their use in treating opioid addiction and opioid induced constipation” (Virginia Commonwealth University, priority 2009, dated 2015)
